Series [1] deals with Pseudomonas aeruginosa ATCC 9027. Kind of series: Inhibition assay of essential oils and pairings in base solution, log reduction and synergy. Format: cell-based. Particulars: pairing Clove + Geraniol; log reduction of pairing divided by that of the pure oil named.
Series [2] concerns Banded crickets. Nature of the series: Residual insecticides against banded crickets (surfaces aged 7 DAT). Format: in vivo. To be noted: 0.75 gallons per acre. On the procedure:
Post-Treatment Arenas: 20 oz. […] A potato cutting was added as a food source. Clean post-treatment arenas were used to contain the test systems after exposure to the test substances.
(§1) The test substances were shaken and then mixed at a rate of 5.324 mL of concentrate per 200 ml of water.
The diluted test substances were adequately shaken prior to applications. A track spraying jig was used to make a linear application. […] This equated to a treatment rate of 0.75 gallons per acre.

Series [3] relates to E. coli. Nature of the series: E. coli growth inhibition, essential oil comparison in the non-essential oil fraction (CFU count). Format: cell-based, Escherichia coli. To be noted: oils in non-essential oil fraction. On the procedure: (§2) Escherichia coli was grown in the presence of each component or combinations to determine the inhibitory potential. […] The appropriate amount of each component was added to 5 mL of LB media, and each culture was inoculated with 50 μL of a 12 hour old culture of E. coli. The cultures were grown for 12 hours at 37° C. with shaking at 225 rpm before being serial diluted and plated onto solid LB agar plates (5 μL per plate) in triplicate. Plates were incubated for 24 hours at 37° C., and then colonies were counted to determine the inhibitory potential.
Combinations of essential oils, each at the concentration indicated in Example 1, were assayed for their inhibitory potential in a similar manner as Example 1.
The essential oils were then tested in the non-essential oil fraction for synergy. […] Also, there was increasing antimicrobial action of the essential oils related to the combination of the oils leading to the highest activity found in the Essential Oil-Ark product.

For series [4], the system named is Candida albicans ATCC 10231. Kind of series: Inhibition assay of essential oils and pairings in base solution, log reduction and synergy. Format: cell-based. Particulars: log reduction of pairing divided by that of the pure oil named.
The test system of series [5] is Escherichia coli. Kind of series: E. coli growth inhibition by individual components and combinations (CFU count). Format: cell-based. Particulars: for CFUs / CFUs/mL: CFU after 24 hours; for reduction of growth of E. coli (in words): component alone. How it is done: as §2
Series [6] deals with Banded crickets. Nature of the series: Direct spray insecticides against banded crickets. Format: in vivo. To be noted: 0.75 gallons per acre. On the procedure:
The Test Arenas were used to contain the test systems during the test substance applications.
Post-Treatment Arenas: 20 oz. SOLO cups with mesh lids were used as post-treatment arenas. A potato cutting was added as a food source. Clean post-treatment arenas were used to contain the test systems after exposure to the test substances.
Application Equipment: A compressed air sprayer with a flat fan nozzle, pressurized to 20 PSI was used to make applications.
as §1
The diluted test substances were adequately shaken prior to applications. A track spraying jig was used to make a linear application. A single cartridge containing 10 test systems was placed in the middle of the spray path. […] This equated to a treatment rate of 0.75 gallons per acre.
The observations were made by raising the test arenas and gently blowing air on the test systems to provoke movement, lightly prodding the test systems, or the test arenas were shaken/agitated to provoke test system movement.
The test systems were transferred from the Treatment Arenas into the clean Post-Treatment Arenas 1 hour after the applications.

For `CC(C)=CCC/C(C)=C/CO` [Geraniol], the Synergistic advantage is on record as 106.3% in series [1]; 120.9% in series [4] (pairing Geraniol + Garlic); 103.9% in series [4] (pairing Geraniol + Peppermint); 103.9% in series [4] (pairing Geraniol + Rosemary); 103.9% in series [4] (pairing Geraniol + Thyme). Also, the “Average Percent Mortality” value in series [2] (surface aged 7 DAT, 3 DAT) came to 10%; in series [6] (2 DAT) it was 33%. Also, the “efficacy as a residual insecticide (in words)” value in series [2] (up to 7 days after treatment) was “did not provide high levels of mortality”. Moreover, the Avg in series [3] (CFU after 24 hours) is recorded as 43.333. The CFUs is 43333 CFUs in series [3] (CFU after 24 hours) and 2 CFUs in series [5]. Besides, the CFUs/mL in series [3] (CFU after 24 hours) worked out at 866660 CFUs/mL; in series [5], 40 CFUs/mL. Further, in series [3], the “antimicrobial activity (in words)” value was “highest activity of the essential oils”. Also, the “efficacy as a direct kill insecticide (in words)” value in series [6] is recorded as “did not provide high levels of mortality”.
Turning to `CCCCCCCCCCCCCCCCCC(=O)OCC(O)CO` (stereo not drawn) [Glyceryl Monostearate], in series [5], the CFUs is 8330000 CFUs, the CFUs/mL is listed as 166600000 CFUs/mL and the “reduction of growth of E. coli (in words)” value is “did not substantially reduce growth of E. coli”.
As for `C/C=C/C=C/C(=O)[O-].[K+]` [Potassium Sorbate], in series [5], the CFUs amounted to 13000000 CFUs, the CFUs/mL stood at 260000000 CFUs/mL and the “reduction of growth of E. coli (in words)” value is “did not substantially reduce growth of E. coli”.

Source of the values: US20240358025A1, “INSECT, BACTERIAL, AND/OR FUNGAL CONTROL COMPOSITION” (priority 2021, published 2024).
